Test results: PubChem BioAssay AID1259411 (Chemical Carcinogenesis Research Information System (CCRIS), 2018)
The source made the active and inactive calls. The rule behind the calls is not given here.

System: rodent carcinogenicity bioassays, tumor incidence
Experiment: CCRIS carcinogenicity studies
Procedure, shortened: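 Archive of carcinogenicity, mutagenicity, tumor promotion and tumor inhibition results drawn from journals, NCI reports and other sources, expert-reviewed; covers 1985-2011 and is no longer updated.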

Measured: carcinogen call

O=C1Nc2ccc(Cl)cc2C(c2ccccc2)=NC1O (stereo not given)
equivocal: Species: RAT, Strain/Sex: F344/MALE, Route: ORAL, Dose: 0, 625, 2500, 5000 PPM IN DIET FOR 105 WK (STUDY DURATION: 105 WK), Dose: 0, 625, 2500, 5000 PPM IN DIET FOR 105 WK (STUDY DURATION: 105 WK), Tumor Site: Type of Lesion: KIDNEY: RENAL TUBULE ADENOMA | Species: RAT, Strain/Sex: F344/MALE, Route: ORAL, Dose: 0, 10000, PPM IN DIET FOR 26 WK (STUDY DURATION: 105 WK), Dose: 0, 10000, PPM IN DIET FOR 26 WK (STUDY DURATION: 105 WK), Tumor Site: Type of Lesion: KIDNEY: RENAL TUBULE ADENOMA
inactive: Species: RAT, Strain/Sex: F344/FEMALE, Route: ORAL, Dose: 0, 625, 2500, 5000 PPM FOR 105 WK (STUDY DURATION: 105 WK), Dose: 0, 625, 2500, 5000 PPM FOR 105 WK (STUDY DURATION: 105 WK) inactive; negative | Species: RAT, Strain/Sex: F344/FEMALE, Route: ORAL, Dose: 0, 625, 2500, 5000 PPM IN DIET FOR 105 WK (STUDY DURATION: 105 WK), Dose: 0, 625, 2500, 5000 PPM IN DIET FOR 105 WK (STUDY DURATION: 105 WK) inactive; negative | Species: RAT, Strain/Sex: F344/FEMALE, Route: ORAL, Dose: 0, 10,000 PPM FOR 26 WK (STUDY DURATION: 105 WK) inactive; negative | Species: RAT, Strain/Sex: F344/FEMALE, Route: ORAL, Dose: 0, 10000 PPM IN DIET FOR 26 WK (STUDY DURATION: 105 WK) inactive; negative
active: Species: MOUSE, Strain/Sex: B6C3F1/FEMALE, Route: ORAL, Dose: 0, 125, 2500, 5000 PPM IN FEED FOR 104-105 WK (STUDY DURATION: 105 WK), Dose: 0, 125, 2500, 5000 PPM IN FEED FOR 104-105 WK (STUDY DURATION: 105 WK), Tumor Site: Type of Lesion: LIVER: HEPATOBLASTOMA, HEPATOCELLULAR ADENOMA, HEPATOCELLULAR CARCINOMA, THYROID: FOLLICULAR CELL ADENOMA active; positive | Species: MOUSE, Strain/Sex: B6C3F1/MALE, Route: ORAL, Dose: 0, 125, 2500, 5000 PPM IN FEED FOR 104-105 WK (STUDY DURATION: 105 WK), Dose: 0, 125, 2500, 5000 PPM IN FEED FOR 104-105 WK (STUDY DURATION: 105 WK), Tumor Site: Type of Lesion: LIVER: HEPATOBLASTOMA, HEPATOCELLULAR ADENOMA, HEPATOCELLULAR CARCINOMA active; positive | Species: MOUSE, Strain/Sex: SWISS-WEBSTER/FEMALE, Route: ORAL, Dose: 0, 2500, 5000 PPM IN FEED FOR 57 WK (STUDY DURATION: 57 WK), Dose: 0, 2500, 5000 PPM IN FEED FOR 57 WK (STUDY DURATION: 57 WK), Tumor Site: Type of Lesion: LIVER: HEPATOCELLULAR ADENOMA, HEPATOCELLULAR CARCINOMA active; positive | Species: MOUSE, Strain/Sex: SWISS-WEBSTER/MALE, Route: ORAL, Dose: 0, 2500, 5000 PPM IN FEED FOR 57 WK (STUDY DURATION: 57 WK), Dose: 0, 2500, 5000 PPM IN FEED FOR 57 WK (STUDY DURATION: 57 WK), Tumor Site: Type of Lesion: LIVER: HEPATOCELLULAR ADENOMA, HEPATOCELLULAR CARCINOMA active; positive | Species: MOUSE, Strain/Sex: SWISS/MALE,FEMALE, Route: ORAL, Dose: 0.05, 0.15% IN DIET FOR 9 MO, Tumor Site: Type of Lesion: LIVER: HEPATOCELLULAR ADENOMA active; positive | Species: RAT, Strain/Sex: F344/MALE, Route: ORAL, Dose: 0, 10,000 PPM FOR 26 WK (STUDY DURATION: 105 WK), Tumor Site: Type of Lesion: KIDNEY: RENAL TUBULE ADENOMA active; positive

NCl
inactive: Species: MOUSE, Strain/Sex: B6C3F1/FEMALE, Route: ORAL, Dose: 0, 50, 100, 200 PPM IN BUFFERED, CHARCOAL-FILTERED, DEIONIZED WATER FOR 104 WK (STUDY DURATION: 2 YR), Dose: 0, 50, 100, 200 PPM IN BUFFERED, CHARCOAL-FILTERED, DEIONIZED WATER FOR 104 WK (STUDY DURATION: 2 YR) inactive; negative | Species: MOUSE, Strain/Sex: B6C3F1/MALE, Route: ORAL, Dose: 0, 50, 100, 200 PPM IN BUFFERED, CHARCOAL-FILTERED, DEIONIZED WATER FOR 104 WK (STUDY DURATION: 2 YR), Dose: 0, 50, 100, 200 PPM IN BUFFERED, CHARCOAL-FILTERED, DEIONIZED WATER FOR 104 WK (STUDY DURATION: 2 YR) inactive; negative | Species: RAT, Strain/Sex: F344/MALE, Route: ORAL, Dose: 0, 50, 100, 200 PPM IN BUFFERED, CHARCOAL-FILTERED, DEIONIZED WATER FOR 103 WK (STUDY DURATION: 2 YR), Dose: 0, 50, 100, 200 PPM IN BUFFERED, CHARCOAL-FILTERED, DEIONIZED WATER FOR 103 WK (STUDY DURATION: 2 YR) inactive; negative

O=NN1CCCCCCC1
inactive: Species: RAT, Strain/Sex: LISTER/FEMALE, Route: SUBCUTANEOUS, Dose: 0, 1 MG 1/WK FOR 10 WK (STUDY DURATION: 104 WK) inactive; negative
active: Species: HAMSTER, Strain/Sex: EUROPEAN/FEMALE, Route: SUBCUTANEOUS, Dose: 11, 22, 44 MG/KG 3/WK, Dose: 11, 22, 44 MG/KG 3/WK, Tumor Site: Type of Lesion: LUNG: ADENOCARCINOMA, SQUAMOUS CELL CARCINOMA, NASAL CAVITY: SQUAMOUS CELL CARCINOMA active; positive | Species: HAMSTER, Strain/Sex: EUROPEAN/MALE, Route: SUBCUTANEOUS, Dose: 16.5, 33, 66 MG/KG 3/WK, Dose: 16.5, 33, 66 MG/KG 3/WK, Tumor Site: Type of Lesion: LUNG: ADENOCARCINOMA, SQUAMOUS CELL CARCINOMA, NASAL CAVITY: SQUAMOUS CELL CARCINOMA active; positive | Species: HAMSTER, Strain/Sex: SYRIAN/MALE, Route: ORAL, Dose: 50, 200 MG/L 5 NIGHT/WK FOR 50 WK IN DRINKING WATER, Tumor Site: Type of Lesion: NASAL CAVITY, LARYNX, PHARYNX, TRACHEA, ESOPHAGUS, FORESTOMACH, Tumor Site: Type of Lesion: NASAL CAVITY, LARYNX, PHARYNX, TRACHEA, ESOPHAGUS, FORESTOMACH active; positive | Species: RAT, Strain/Sex: MRC/MALE,FEMALE, Route: ORAL, Dose: 100 MG/L 5 D/WK FOR 30 WK IN DRINKING WATER, Tumor Site: Type of Lesion: ESOPHAGUS, TRACHEA: SQUAMOUS CELL PAPILLOMA, LUNG: SQUAMOUS CELL CARCINOMA, Tumor Site: Type of Lesion: ESOPHAGUS, TRACHEA: SQUAMOUS CELL PAPILLOMA, LUNG: SQUAMOUS CELL CARCINOMA active; positive
